Results: paper PMC8954547, “Nonpeptidic Z360-Analogs Tagged with Trivalent Radiometals as Anti-CCK2R Cancer Theranostic Agents: A Preclinical Study” (Pharmaceutics, 2022)

How the values were obtained:
[1] = Radioligand stability in mice (radio-HPLC of blood and urine); type: in vivo; settings: mean ± SD
Method: The formation of radiometabolites which can be detected in the blood was tested in blood samples collected 5 min post-injection (pi) of each of the radioligands [^67Ga]Ga/[^111In]In/[^177Lu]Lu-GAS1/3 and [^67Ga]Ga/[^111In]In-GAS2. For this study, in-house male Swiss albino mice (body weight: 30 ± 5 g, provided by the NCSR “Demokritos” Animal House) were used in groups of three. The animals received, through the tail vein, a 100-μL bolus containing each radioligand tested (2.5–3 nmol of the total conjugate in vehicle: saline/EtOH 9/1 v/v, corresponding to: up to 11 MBq for In-111, up to 13 MBq for Ga-67 and up to 74 MBq for Lu-177). Mice were euthanized, and blood was collected directly from the heart using a prechilled penicillin syringe and transferred in a prechilled EDTA-containing Eppendorf Protein LoBind® tube on ice (40 µL, 50 mM Na2EDTA solution). After centrifugation (10 min, 2000× g/4 °C, in a Hettich, Universal 320R, centrifuge), the blood plasma was collected, mixed with chilled MeCN in a 1/1 v/v ratio and centrifuged again (10 min, 15,000× g/4 °C). Supernatants were collected and concentrated to a small volume (≈50–100 μL) under a gentle N2-flux at 40 °C. They were then diluted with physiological saline (≈400 μL) and filtered through a Millex GV filter (0.22 μm, 13 mm Ø, Millipore, Milford, CT, USA). Aliquots of the filtrate were analyzed by radio-RP-HPLC using a Waters Symmetry Shield RP18 cartridge column (5 μm, 3.9 mm × 20 mm) eluted at a flow rate of 1.0 mL/min with the following gradient: 100% A/0% B to 55% A/45% B in 45 min; A = 0.1% aqueous TFA (v/v) and B = MeCN (system 2). The elution time (tR) of each parent radioligand was determined by coinjection of blood samples with an aliquot of the labeling solution on the HPLC column. Results were calculated as the average percentage of intact radioligand ± SD derived from three independent experiments.
Following the same injection protocol, radioligands were administered in additional groups of mice, but this time animals were euthanized 30 min pi. The urine was immediately collected from the bladder using a prechilled syringe and transferred as before in a prechilled EDTA-containing Eppendorf Protein LoBind® centrifuge tube on ice (40 µL, 50 mM Na2EDTA solution) and 0.1 mL of physiological saline. Urine proteins were precipitated by adding chilled MeCN in a 1/1 v/v ratio followed by a 10 min centrifugation step (15,000× g/4 °C). The supernatant was then collected and treated following the blood sample workup procedure. Aliquots of the Millex-GV filtrate (containing >90% of total urine activity) were analyzed by radio-HPLC, adopting the aforementioned conditions. Results were calculated as the average percentage of intact radioligand ± SD derived from three independent experiments.

[2] = tested on: SCID mice bearing twin HEK293-CCK2i4svR and wtHEK293 tumors; assay: Biodistribution in SCID mice bearing twin HEK293-CCK2i4svR and wtHEK293 xenografts; type: in vivo
Method: Inocula containing a suspension of freshly harvested HEK293-CCK2i4svR/wtHEK293 cells (150 μL, 1.8 × 10^7/1.4 × 10^7 cells, respectively, in normal saline) were subcutaneously (sc) injected in the right and left flanks of male SCID mice (24.5 ± 2.3 g body weight, six weeks of age on arrival day, NCSR “Demokritos” Animal House Facility). Well-palpable tumors (0.42 ± 0.37/0.25 ± […], respectively) were grown at the inoculation site 3–4 weeks later, and biodistribution was conducted. On the day of biodistribution, animals were divided into groups of four and received the radioligand through the tail vein as a bolus (100 μL, containing each of: i. 78–91 kBq [^67Ga]GAS1/2/3 corresponding to 7–17 pmol GAS1/2/3; ii. 74–92 kBq [^111In]GAS1/2/3 corresponding to 20–25 pmol GAS1/2/3; iii. 730 kBq [^177Lu]Lu-GAS1/3 corresponding to 40 pmol GAS1/3, in-vehicle: saline/EtOH 9/1 v/v). Animals were euthanized at predetermined time intervals depending upon the radionuclide applied (for [^67Ga]Ga-GAS1/2/3: 1, 4 and 24 h pi; for [^111In]In-GAS1/2/3: 4 and 24 h pi–two extra groups of mice receiving gelofusine together with [^111In]In-GAS1/2 at 4 and 24 h pi were included; and for [^177Lu]Lu-GAS1/3: 4, 24, 48, 72 and 96 h pi). Mice were dissected, and blood samples, organs of interest and tumors were rapidly collected, weighted and counted in the gamma counter. Biodistribution data was calculated as the percentage of the administered dose per gram tissue (%IA/g) with the aid of suitable standards of the administered dose and the Microsoft Excel program. Results are presented as mean % IA/g values ± SD, n = 4 per time point, as determined by the PRISM^TM 6.0 GraphPad software (San Diego, CA, USA).

CC(C)(C)C(=O)CN1C(=O)[C@H](NC(=O)Nc2cccc(C(=O)NCCOCCOCCOCCNC(=O)[C@H](CCC(=O)O)NC(=O)CN3CCN(CC(=O)[O-])CCN(CC(=O)[O-])CCN(CC(=O)[O-])CC3)c2)CN(C2CCCCC2)c2ccccc21.[177Lu+3] (stereo in doubt) [[^177Lu]Lu-GAS1]
Intact radioligand in blood ([1]; mice blood collected 5 min pi): 81.1 ± 8.2 (3) %
Intact radioligand in urine ([1]; mice urine collected 30 min pi): 79.2 ± 10.3 (3) %
Biodistribution, Blood ([2]; 4 h pi): 0.99 ± 0.20 %IA/g
Biodistribution, CCK2i4svR(+) Tumor ([2]; 4 h pi): 8.74 ± 1.60 %IA/g
Biodistribution, CCK2i4svR(-) Tumor ([2]; 4 h pi): 1.01 ± 0.30 %IA/g
Biodistribution, Femur ([2]; 4 h pi): 0.28 ± 0.03 %IA/g
Biodistribution, Heart ([2]; 4 h pi): 0.41 ± 0.07 %IA/g
Biodistribution, Intestines ([2]; 4 h pi): 1.65 ± 0.28 %IA/g
Biodistribution, Kidneys ([2]; 4 h pi): 3.70 ± 0.62 %IA/g
Biodistribution, Liver ([2]; 4 h pi): 2.21 ± 0.44 %IA/g
Biodistribution, Lungs ([2]; 4 h pi): 0.94 ± 0.15 %IA/g
Biodistribution, Muscle ([2]; 4 h pi): 0.12 ± 0.02 %IA/g
Biodistribution, Pancreas ([2]; 4 h pi): 0.56 ± 0.11 %IA/g
Biodistribution, Spleen ([2]; 4 h pi): 0.59 ± 0.07 %IA/g
Biodistribution, Stomach ([2]; 4 h pi): 0.37 ± 0.05 %IA/g
Biodistribution, Blood ([2]; 24 h pi): 0.06 ± 0.00 %IA/g
Biodistribution, CCK2i4svR(+) Tumor ([2]; 24 h pi): 2.09 ± 0.50 %IA/g
Biodistribution, CCK2i4svR(-) Tumor ([2]; 24 h pi): 0.29 ± 0.20 %IA/g
Biodistribution, Femur ([2]; 24 h pi): 0.11 ± 0.01 %IA/g
Biodistribution, Heart ([2]; 24 h pi): 0.12 ± 0.00 %IA/g
Biodistribution, Intestines ([2]; 24 h pi): 0.32 ± 0.07 %IA/g
Biodistribution, Kidneys ([2]; 24 h pi): 1.05 ± 0.12 %IA/g
Biodistribution, Liver ([2]; 24 h pi): 0.51 ± 0.07 %IA/g
Biodistribution, Lungs ([2]; 24 h pi): 0.34 ± 0.03 %IA/g
Biodistribution, Muscle ([2]; 24 h pi): 0.04 ± 0.00 %IA/g
Biodistribution, Pancreas ([2]; 24 h pi): 0.10 ± 0.01 %IA/g
Biodistribution, Spleen ([2]; 24 h pi): 0.32 ± 0.01 %IA/g
Biodistribution, Stomach ([2]; 24 h pi): 0.14 ± 0.03 %IA/g
Biodistribution, Blood ([2]; 48 h pi): 0.04 ± 0.01 %IA/g
Biodistribution, CCK2i4svR(+) Tumor ([2]; 48 h pi): 0.97 ± 0.20 %IA/g
Biodistribution, CCK2i4svR(-) Tumor ([2]; 48 h pi): 0.17 ± 0.02 %IA/g
Biodistribution, Femur ([2]; 48 h pi): 0.09 ± 0.01 %IA/g
Biodistribution, Heart ([2]; 48 h pi): 0.07 ± 0.01 %IA/g
Biodistribution, Intestines ([2]; 48 h pi): 0.08 ± 0.01 %IA/g
Biodistribution, Kidneys ([2]; 48 h pi): 0.38 ± 0.07 %IA/g
Biodistribution, Liver ([2]; 48 h pi): 0.32 ± 0.04 %IA/g
Biodistribution, Lungs ([2]; 48 h pi): 0.29 ± 0.04 %IA/g
Biodistribution, Muscle ([2]; 48 h pi): 0.03 ± 0.00 %IA/g
Biodistribution, Pancreas ([2]; 48 h pi): 0.05 ± 0.01 %IA/g
Biodistribution, Spleen ([2]; 48 h pi): 0.26 ± 0.06 %IA/g
Biodistribution, Stomach ([2]; 48 h pi): 0.08 ± 0.01 %IA/g
Biodistribution, Blood ([2]; 72 h pi): 0.04 ± 0.00 %IA/g
Biodistribution, CCK2i4svR(+) Tumor ([2]; 72 h pi): 0.35 ± 0.23 %IA/g
Biodistribution, CCK2i4svR(-) Tumor ([2]; 72 h pi): 0.18 ± 0.05 %IA/g
Biodistribution, Femur ([2]; 72 h pi): 0.06 ± 0.00 %IA/g
Biodistribution, Heart ([2]; 72 h pi): 0.05 ± 0.01 %IA/g
Biodistribution, Intestines ([2]; 72 h pi): 0.06 ± 0.02 %IA/g
Biodistribution, Kidneys ([2]; 72 h pi): 0.14 ± 0.04 %IA/g
Biodistribution, Liver ([2]; 72 h pi): 0.23 ± 0.02 %IA/g
Biodistribution, Lungs ([2]; 72 h pi): 0.21 ± 0.03 %IA/g
Biodistribution, Muscle ([2]; 72 h pi): 0.02 ± 0.00 %IA/g
Biodistribution, Pancreas ([2]; 72 h pi): 0.03 ± 0.00 %IA/g
Biodistribution, Spleen ([2]; 72 h pi): 0.51 ± 0.71 %IA/g
Biodistribution, Stomach ([2]; 72 h pi): 0.05 ± 0.01 %IA/g
Biodistribution, Blood ([2]; 96 h pi): 0.04 ± 0.00 %IA/g
Biodistribution, CCK2i4svR(+) Tumor ([2]; 96 h pi): 0.56 ± 0.25 %IA/g
Biodistribution, CCK2i4svR(-) Tumor ([2]; 96 h pi): 0.11 ± 0.04 %IA/g
Biodistribution, Femur ([2]; 96 h pi): 0.05 ± 0.01 %IA/g
Biodistribution, Heart ([2]; 96 h pi): 0.04 ± 0.00 %IA/g
Biodistribution, Intestines ([2]; 96 h pi): 0.08 ± 0.05 %IA/g
Biodistribution, Kidneys ([2]; 96 h pi): 0.10 ± 0.04 %IA/g
Biodistribution, Liver ([2]; 96 h pi): 0.19 ± 0.02 %IA/g
Biodistribution, Lungs ([2]; 96 h pi): 0.17 ± 0.02 %IA/g
Biodistribution, Muscle ([2]; 96 h pi): 0.02 ± 0.01 %IA/g
Biodistribution, Pancreas ([2]; 96 h pi): 0.03 ± 0.01 %IA/g
Biodistribution, Spleen ([2]; 96 h pi): 0.14 ± 0.02 %IA/g
Biodistribution, Stomach ([2]; 96 h pi): 0.05 ± 0.01 %IA/g
Background clearance / excretion route ([2]; mouse, in vivo): rapid background clearance predominantly via the kidneys
